# Experimental data as given in patent US12416009B2, “Methods and compositions for the modification of plants” (Flagship Pioneering Innovations VI, LLC, priority 2018, dated 2025).
# Experiments:
# Glycine max cell line = experiment: Uptake of AF488-labeled lemon PMPs by plant cells (epifluorescence microscopy); type: cell-based; details: 1×10^12 AF488-PMPs/mL, 2 hours at 24° C.
# Description: (§1) Plant cell lines were purchased from the Deutsche Sammlung von Mikroorganismen und Zellkulturen (DSMZ) (Glycine max, #PC-1026; Triticum aestivum, #PC-998) and ABRC (Zea mays, Black Mexican sweet (BMS), and were grown in baffled vented 250 mL flasks in the dark, at 24° C. with agitation (110 rpm). Glycine max and Triticum aestivum were grown in 3.2 g/L Gamborg's B-5 Basal Medium with Minimal Organics supplemented (G5893, Millipore Sigma) pH 5.5, supplemented with 2% sucrose, and 2 mg/L 2,4-dichlorophenoxyacetic acid (2,4D) (D7299, Millipore Sigma) according to the supplier's instructions. BMS cells were grown in Murashige and Skoog basal medium pH 5.8, containing 4.3 g/L Murashige and Skoog Basal Salt Mixture (Sigma M5524), 2% sucrose (S0389, Millipore Sigma), 1×MS vitamin solution (M3900, Millipore Sigma), 2 mg/L 2,4-dichlorophenoxyacetic acid (D7299, Millipore Sigma) and 250 ug/L thiamine HCL (V-014, Millipore Sigma).
# (§2) For treatment with AF488-PMPs, 5 mL of the cell suspensions was taken to determine the percent Pack Cell Volume (PCV). The PCV is defined as the volume of cells divided by the total volume of the cell culture aliquot, and expressed as a percentage. Cells were centrifuged for 5 min at 3900 rpm, and the volume of the cell pellet was determined. The % PCV for BMS, Glycine max, and Triticum aestivum were 20%, 15%, and 18%, respectively. For the uptake experiment, the % PCV of the cultures was adjusted to 2%, by diluting cells in their appropriate medium. Next, 125 μl of the plant cell suspensions was added to a 24 well plate, and duplicate samples were treated with 125 μl MES buffer (200 mM MES+10 mM NaCl, pH6) alone (negative control), AF488 dye only (dye only control) or a final concentration of 1×10^12 AF488-PMPs/mL diluted in MES buffer to 125 μl. Cells were incubated for 2 hours at 24° C. in the dark, washed three times with 1 mL MES buffer to remove AF488-PMPs or free dye that had not been taken up, and resuspended in 300 μL of MES buffer for imaging on an epifluorescence microscope (EVOS FL Auto 2, Invitrogen).
# [1] = system: Triticum aestivum cell line; experiment: as above; type: cell-based; details: 1×10^12 AF488-PMPs/mL, 2 hours at 24° C.
# Description: as §1, §2
# [2] = system: Zea mays Black Mexican sweet (BMS) cells; experiment: as above; type: cell-based; details: 1×10^12 AF488-PMPs/mL, 2 hours at 24° C.
# Description: as §1, §2
# [3] = system: Arabidopsis thaliana seedlings; experiment: Cytotoxicity of free DOX and DOX-loaded PMPs in Arabidopsis thaliana seedlings; type: in vivo, Arabidopsis thaliana Col-0; details: 100 μM DOX dose; 24 hours exposure, then 3 days; 7-day old seedlings
# Description: Grapefruit PMPs were produced and loaded with doxorubicin as described in Examples 16a and 16b. Wild type Arabidopsis thaliana Col-0 seeds were obtained from the ABRC, surface sterilized with 50% bleach, stratified for 1-3 d at 4° C., and germinated on half-strength (0.5×) Murashige and Skoog (MS) medium supplemented with 0.5% sucrose, 2.5 mM MES, pH 5.6, containing 0.8% agar, with a photoperiod of 16 h light 23° C./8 h dark 21° C.
# To test whether PMPs can deliver a small molecule cargo in planta, 7-day old Arabidopsis thaliana seedlings were transferred to 0.5× liquid MS medium in a 24 well plate (1 seedling per well), and treated with free DOX or DOX-loaded PMPs with an encapsulated DOX dose of 0 (negative control), 25 μM, 50 μM and 100 μM. The plate was covered with aluminum foil and incubated for 24 hours. DOX-containing medium was removed, the seedlings were washed two times with ½×MS medium, and fresh medium was added. Seedlings were incubated for an additional 3 days under a normal photoperiod (16 h light 23° C./8 h dark 21° C.). Next, seedlings were removed from the plate and towel-dried for imaging and cytotoxicity was assessed by analyzing leaf vigor, leaf color and root length. Cytotoxicity is defined by shortening of the roots, loss of leaf vigor, and leaf discoloration (yellow instead of green) when compared to an untreated seedling control.
# plants = details: Culiarez-Mac et al, Plant Growth Regulation 1987; cited from earlier work
Compound,AF488 fluorescence signal in cells (PMP uptake) (Glycine max cell line),AF488 fluorescence signal in cells (PMP uptake) [1],AF488 fluorescence signal in cells (PMP uptake) [2],"cytotoxicity (root shortening, loss of leaf vigor, leaf discoloration) [3]",cytotoxicity in plants (plants)
Alexa Fluor 488® NHS Ester [AF488 dye only],no detectable fluorescence,no detectable fluorescence,no detectable fluorescence,,
"COc1cccc2c1C(=O)c1c(O)c3c(c(O)c1C2=O)C[C@@](O)(C(=O)CO)C[C@@H]3O[C@H]1C[C@H](N)[C@H](O)[C@H](C)O1 [free DOX, doxorubicin]",,,,root shortening and leaf discoloration,cytotoxic in plants
